Here are results for 4 substances from PMC11013139, “Identification of Corn Peptides with Alcohol Dehydrogenase Activating Activity Absorbed by Caco-2 Cell Monolayers” (Molecules, 2024).

Where no end group is shown, it is not given here.

One assay relates to ADH enzyme. As to conditions: cited from earlier work. The text has this: The results of molecular docking were visualized by selecting three peptides with the lowest binding energy, as depicted in Figure 5. Three peptides successfully docked onto the hydrophobic cavity near the ADH active site, primarily binding to ADH through hydrogen bonds and hydrophobic interactions. Twelve hydrogen bonds were formed between SSNCQPF and ADH residues (His 44, Gly 181, Leu 182, Gly 183, Val 245, Ser 246, Val 247, Met 270, Glu 333, Gly 339, Arg 340). Ten hydrogen bonds were formed between QPQQP ...

The target of another assay is T1, ADH (Saccharomyces cerevisiae, UniProt P00330).
T1 sequence (P00330 1-348): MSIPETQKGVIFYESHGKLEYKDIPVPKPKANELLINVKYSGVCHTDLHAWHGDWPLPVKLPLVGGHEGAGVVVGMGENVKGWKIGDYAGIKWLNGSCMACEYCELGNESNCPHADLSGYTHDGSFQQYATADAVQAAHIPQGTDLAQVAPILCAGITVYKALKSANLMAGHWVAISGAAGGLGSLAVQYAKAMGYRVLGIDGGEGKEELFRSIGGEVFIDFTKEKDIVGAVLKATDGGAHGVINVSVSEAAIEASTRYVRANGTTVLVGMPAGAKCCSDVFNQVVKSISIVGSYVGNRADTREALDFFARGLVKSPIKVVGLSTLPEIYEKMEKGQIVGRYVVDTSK
Put plainly: ADH activation activity in vitro (improved assay kit method). The format is biochemical. As to conditions: synthetic peptides; ADH 0.2 U/mL, NAD+ and ethanol, 37 °C, absorbance 340 nm every 10 s for 10 min; mean ± SD of three parallel experiments. Here is the method: The ADH activation activity in vitro was detected using an improved assay kit method. The specific steps are as follows: 50 μL of the sample solution was mixed with 150 μL of the assay reagent (including buffer, NAD^+, and ethanol); after equilibrating at 37 °C for 5 min, 50 μL of ADH (0.2 U/mL) was added to initiate the reaction. The absorbance at 340 nm was measured using a Varioskan Flash (Thermo Fisher Scientific, Waltham, MA, USA) full-wavelength scanning multimode reader, with readings taken every 10 s for 10 min. Distilled water was used as a negative control in place of the sample. The reaction kinetics curve was fitted, and the first derivative of the curve at 0 min was calculated as the initial reaction rate. The initial reaction rate of the sample was recorded as Vs, while that of the negative control was recorded as V0. The ADH activation rate of the sample can be calculated using the following equation:(1) ADH activation activity %=VS−V0/V0×100

For the substance “Lys-Pro-Cys [KPC, Chicken-derived tripeptide KPC (Lys-Pro-Cys)]”, in the assay with ADH enzyme, the “binding energy between peptide KPC and ADH enzyme” value was -6.6 kcal/mol. With QPQQPW [QPQQPW], the EC50 (usually the concentration that produces a half-maximal response) at ADH came to 2730 ± 130 µM. Substance SSNCQPF [SSNCQPF] registered a half-maximal effective concentration (EC50) on ADH of 1350 ± 220 µM. Against the preceding substance, the EC50 is about 2-fold lower.

In the case of TGCPVLQ [TGCPVLQ], on ADH, the EC50 came to 2260 ± 160 µM.
